Measured values taken from US11866450B2, “Modulators of Cystic Fibrosis Transmembrane Conductance regulator, pharmaceutical compositions, methods of treatment, and process for making the modulators” (priority 2018, dated 2024).

Target: CFTR-mediated chloride transport (Homo sapiens, UniProt P13569)
Type: cell-based
Conditions: enteroid cells incubated with test compound 18-24 hours, acute 10 μM forskolin and 300 nM Compound III; for Max. Activity: % of chloride transport with 3 μM Compound A, 3 μM Compound II and 300 nM acute Compound III triple combination control
How it was run: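 Membrane-potential fluorescence AUC over 15 min quantified CFTR chloride transport after acute forskolin (10 μM), IBMX (100 μM) and Compound III (300 nM) in chloride-free buffer. Human enteroid cells were pretreated with compound for 18–24 h; % Activity is relative to 3 μM Compound A + 3 μM Compound II + 300 nM Compound III.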

Chain of CFTR-mediated chloride transport (P13569 whole entry, looked up): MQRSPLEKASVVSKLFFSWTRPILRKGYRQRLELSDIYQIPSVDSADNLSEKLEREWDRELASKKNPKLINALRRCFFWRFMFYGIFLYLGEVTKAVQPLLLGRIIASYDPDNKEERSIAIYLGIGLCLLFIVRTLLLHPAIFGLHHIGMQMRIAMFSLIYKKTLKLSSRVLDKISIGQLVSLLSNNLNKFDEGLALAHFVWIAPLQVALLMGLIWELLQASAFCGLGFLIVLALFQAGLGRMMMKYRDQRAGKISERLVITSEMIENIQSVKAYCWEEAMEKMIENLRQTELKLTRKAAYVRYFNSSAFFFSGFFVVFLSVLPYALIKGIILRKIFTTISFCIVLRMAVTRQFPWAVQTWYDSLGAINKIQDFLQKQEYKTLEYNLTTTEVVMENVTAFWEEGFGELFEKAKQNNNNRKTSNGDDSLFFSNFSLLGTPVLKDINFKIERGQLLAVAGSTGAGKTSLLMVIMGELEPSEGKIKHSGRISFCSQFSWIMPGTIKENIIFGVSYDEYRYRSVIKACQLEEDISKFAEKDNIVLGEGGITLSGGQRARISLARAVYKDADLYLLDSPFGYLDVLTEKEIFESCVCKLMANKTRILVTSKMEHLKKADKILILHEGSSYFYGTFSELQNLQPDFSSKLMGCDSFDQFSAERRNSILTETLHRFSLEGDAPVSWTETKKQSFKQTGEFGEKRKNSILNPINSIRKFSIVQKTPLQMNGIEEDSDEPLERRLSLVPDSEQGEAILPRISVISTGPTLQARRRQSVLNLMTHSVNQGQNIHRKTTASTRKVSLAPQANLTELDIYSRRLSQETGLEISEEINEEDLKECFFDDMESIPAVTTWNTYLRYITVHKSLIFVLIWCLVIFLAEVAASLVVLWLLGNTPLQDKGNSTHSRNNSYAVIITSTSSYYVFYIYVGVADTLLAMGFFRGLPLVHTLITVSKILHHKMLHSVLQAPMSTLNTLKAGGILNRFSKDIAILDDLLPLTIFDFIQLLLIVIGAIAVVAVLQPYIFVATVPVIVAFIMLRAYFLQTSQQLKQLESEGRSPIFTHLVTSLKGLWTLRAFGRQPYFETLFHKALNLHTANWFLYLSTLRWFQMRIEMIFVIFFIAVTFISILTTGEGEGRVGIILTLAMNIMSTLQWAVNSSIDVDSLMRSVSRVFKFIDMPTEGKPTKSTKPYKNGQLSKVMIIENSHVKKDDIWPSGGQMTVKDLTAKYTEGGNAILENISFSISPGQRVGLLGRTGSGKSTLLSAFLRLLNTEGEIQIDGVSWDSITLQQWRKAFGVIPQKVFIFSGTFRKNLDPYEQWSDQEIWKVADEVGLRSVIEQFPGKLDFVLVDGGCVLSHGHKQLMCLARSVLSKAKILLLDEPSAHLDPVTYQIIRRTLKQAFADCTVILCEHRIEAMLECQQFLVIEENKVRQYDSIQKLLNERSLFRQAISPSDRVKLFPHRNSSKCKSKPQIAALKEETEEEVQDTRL

Row | Structure (SMILES) | EC50 [nM] | Max. Activity
1 | Cc1c2cnn1CCC[C@@H]1CN(c3nc(-n4ccc(OCCC5(C(F)(F)F)CC5)n4)ccc3C(=O)NS2(=O)=O)C(C)(C)C1 (single isomer, unassigned) [Compound 111] | < 1000 | +++ (+++ is >60%)
2 | C[C@@H]1CC[C@H]2CN(c3nc(N4CCN(CCC(C)(C)C)C4=O)ccc3C(=O)NS(=O)(=O)c3cccc(n3)N1)C(C)(C)C2 (single isomer, unassigned) [Compound 218, 8-[3-(3,3-dimethylbutyl)-2-oxoimidazolidin-1-yl]-12,12,17-trimethyl-2λ^6-thia-3,9,11,18,23-pentaazatetracyclo[17.3.1.111,14.05,10]tetracosa-1(22),5,7,9,19(23),20-hexaene-2,2,4-trione] | > 3000 | + (+ is <30%)
3 | CC1(C)C[C@@H]2CCCNc3cccc(n3)S(=O)(=O)NC(=O)c3ccc(N4CC[C@H](OCC56CC7CC(CC(C7)C5)C6)C4=O)nc3N1C2 (single isomer, unassigned) [Compound 245] | < 1000 | +++ (+++ is >60%)
4 | CC1(C)C[C@H]2CCCCn3ccc(n3)S(=O)(=O)NC(=O)c3ccc(-n4ccc(OCCC5(C(F)(F)F)CC5)n4)nc3N1C2 (single isomer, unassigned) [Compound 44, 21,21-dimethyl-4-(3-{2-[1-(trifluoromethyl)cyclopropyl]ethoxy}-1H-pyrazol-1-yl)-10λ^6-thia-1,3,9,14,23-pentaazatetracyclo[17.2.1.111,14.02,7]tricosa-2,4,6,11(23),12-pentaene-8,10,10-trione] | > 3000 | ++ (++ is 30-60%)
5 | C[C@@H]1CC[C@H]2CN(c3nc(-n4ccc(OCCC5(C(F)(F)F)CC5)n4)ccc3C(=O)NS(=O)(=O)c3cccc(n3)N1)C(C)(C)C2 (single isomer, unassigned) [Compound 60, 12,12,17-trimethyl-8-(3-{2-[1-(trifluoromethyl)cyclopropyl]ethoxy}-1H-pyrazol-1-yl)-2λ^6-thia-3,9,11,18,23-pentaazatetracyclo[17.3.1.111,14.05,10]tetracosa-1(23),5(10),6,8,19,21-hexaene-2,2,4-trione] | < 1000 | +++ (+++ is >60%)
6 | CN1CCC[C@H]2CN(c3nc(-n4ccc(OCCC(C5CC5)C5CC5)n4)ccc3C(=O)NS(=O)(=O)c3cccc1n3)C(C)(C)C2 (single isomer, unassigned) [Compound 203, 8-[3-(3,3-Dicyclopropylpropoxy)-1H-pyrazol-1-yl]-12,12,18-trimethyl-2λ^6-thia-3,9,11,18,23-pentaazatetracyclo[17.3.1.111,14.05,10]tetracosa-1(22),5,7,9,19(23),20-hexaene-2,2,4-trione] | < 1000 | +++ (+++ is >60%)
7 | C[C@@H]1CC[C@H]2CN(c3nc(-n4ccc(OCCC5(C(F)(F)F)CC5)n4)ccc3C(=O)NS(=O)(=O)c3cccc(n3)N1)C(C)(C)C2 (single isomer, unassigned) [Compound 61, 12,12,17-trimethyl-8-(3-{2-[1-(trifluoromethyl)cyclopropyl]ethoxy}-1H-pyrazol-1-yl)-2λ^6-thia-3,9,11,18,23-pentaazatetracyclo[17.3.1.111,14.05,10]tetracosa-1(23),5(10),6,8,19,21-hexaene-2,2,4-trione] | < 1000 | +++ (+++ is >60%)
8 | CC1(C)C[C@H]2CCCNc3cccc(n3)S(=O)(=O)NC(=O)c3ccc(-n4ccc(OCC5(C(F)(F)F)CC5)n4)nc3N1C2 (single isomer, unassigned) [Compound 21, 12,12-dimethyl-8-(3-{[1-(trifluoromethyl)cyclopropyl]methoxy}-1H-pyrazol-1-yl)-2λ^6-thia-3,9,11,18,23-pentaazatetracyclo[17.3.1.111,14.05,10]tetracosa-1(23),5(10),6,8,19,21-hexaene-2,2,4-trione] | > 3000 | ++ (++ is 30-60%)
9 | CC1(C)CC[C@H]2CNc3cccc(n3)S(=O)(=O)NC(=O)c3ccc(-n4ccc(OCCC5(C(F)(F)F)CC5)n4)nc3N21 (single isomer, unassigned) [Compound 51, 7,7-dimethyl-11-(3-{2-[1-(trifluoromethyl)cyclopropyl]ethoxy}-1H-pyrazol-1-yl)-17λ^6-thia-2,8,10,16,22-pentaazatetracyclo[16.3.1.04,8.09,14]docosa-1(22),9,11,13,18,20-hexaene-15,17,17-trione] | > 3000 | + (+ is <30%)
10 | CC1(C)C[C@H]2CCNc3cccc(n3)S(=O)(=O)NC(=O)c3ccc(-n4ccc(OCCC5(C(F)(F)F)CC5)n4)nc3N1C2 (single isomer, unassigned) [Compound 26, 7,7-dimethyl-11-(3-{2-[1-(trifluoromethyl)cyclopropyl]ethoxy}-1H-pyrazol-1-yl)-17λ^6-thia-2,8,10,16,22-pentaazatetracyclo[16.3.1.15,8.09,14]tricosa-1(21),9,11,13,18(22),19-hexaene-15,17,17-trione] | < 1000 | +++ (+++ is >60%)
11 | CC1(C)C[C@H]2CCCCOc3ccc(cn3)S(=O)(=O)NC(=O)c3ccc(-n4ccc(OCCC5(C(F)(F)F)CC5)n4)nc3N1C2 (single isomer, unassigned) [Compound 103, 12,12-dimethyl-8-(3-{2-[1-(trifluoromethyl)cyclopropyl]ethoxy}-1H-pyrazol-1-yl)-19-oxa-2λ^6-thia-3,9,11,21-tetraazatetracyclo[18.2.2.111,14.05,10]pentacosa-1(23),5,7,9,20(24),21-hexaene-2,2,4-trione] | < 1000 | ++ (++ is 30-60%)
12 | CC1(C)C[C@H]2CCCOc3cccc(n3)S(=O)(=O)NC(=O)c3ccc(-n4ccc(OCCC5(C(F)(F)F)CC5)n4)nc3N1C2 (single isomer, unassigned) [Compound 49, 12,12-dimethyl-8-(3-{2-[1-(trifluoromethyl)cyclopropyl]ethoxy}-1H-pyrazol-1-yl)-18-oxa-2λ^6-thia-3,9,11,23-tetraazatetracyclo[17.3.1.111,14.05,10]tetracosa-1(22),5,7,9,19(23),20-hexaene-2,2,4-trione] | < 1000 | +++ (+++ is >60%)
13 | CC1CCC2CN(c3nc(N4CCN(CCC(C)(C)C)C4=O)ccc3C(=O)NS(=O)(=O)c3cccc(n3)N1)C(C)(C)C2 (centres unmarked) [Compound 209, 8-[3-(3,3-Dimethylbutyl)-2-oxoimidazolidin-1-yl]-12,12,17-trimethyl-2λ^6-thia-3,9,11,18,23-pentaazatetracyclo[17.3.1.111,14.05,10]tetracosa-1(22),5,7,9,19(23),20-hexaene-2,2,4-trione] | < 1000 | ++ (++ is 30-60%)
14 | CC1(C)C[C@H]2CCCCNc3cccc(n3)S(=O)(=O)NC(=O)c3ccc(-n4cc(OCCC5(C(F)(F)F)CC5)cn4)nc3N1C2 (single isomer, unassigned) [Compound 83, 12,12-dimethyl-8-(4-{2-[1-(trifluoromethyl)cyclopropyl]ethoxy}-1H-pyrazol-1-yl)-2λ^6-thia-3,9,11,19,24-pentaazatetracyclo[18.3.1.111,14.05,10]pentacosa-1(23),5,7,9,20(24),21-hexaene-2,2,4-trione] | < 1000 | ++ (++ is 30-60%)
15 | CC1(C)C[C@H]2CCCOc3cccc(n3)S(=O)(=O)NC(=O)c3ccc(-n4ccc(OCCC5(C(F)(F)F)CC5)n4)nc3N1C2 (single isomer, unassigned) [Compound 48, 12,12-dimethyl-8-(3-{2-[1-(trifluoromethyl)cyclopropyl]ethoxy}-1H-pyrazol-1-yl)-18-oxa-2λ^6-thia-3,9,11,23-tetraazatetracyclo[17.3.1.111,14.05,10]tetracosa-1(22),5,7,9,19(23),20-hexaene-2,2,4-trione] | > 3000 | + (+ is <30%)
16 | CC1(C)C[C@H]2CCCNc3ccc(cn3)S(=O)(=O)NC(=O)c3ccc(-n4ccc(OCCC5(C(F)(F)F)CC5)n4)nc3N1C2 (single isomer, unassigned) [Compound 72, 12,12-dimethyl-8-(3-{2-[1-(trifluoromethyl)cyclopropyl]ethoxy}-1H-pyrazol-1-yl)-2λ^6-thia-3,9,11,18,20-pentaazatetracyclo[17.2.2.111,14.05,10]tetracosa-1(22),5,7,9,19(23),20-hexaene-2,2,4-trione] | > 3000 | + (+ is <30%)
17 | CC1(C)C[C@H]2CCNc3cccc(n3)S(=O)(=O)NC(=O)c3ccc(-n4ccc(OCCC(C5CC5)C5CC5)n4)nc3N1C2 (single isomer, unassigned) [Compound 251, 11-[3-(3,3-dicyclopropylpropoxy)-1H-pyrazol-1-yl]-7,7-dimethyl-17λ^6-thia-2,8,10,16,22-pentaazatetracyclo[16.3.1.15,8.09,14]tricosa-1(22),9,11,13,18,20-hexaene-15,17,17-trione] | < 1000 | ++ (++ is 30-60%)
18 | CN1CCC[C@H]2CCC(C)(C)N2c2nc(-n3ccc(OCCC4(C(F)(F)F)CC4)n3)ccc2C(=O)NS(=O)(=O)c2cccc1n2 [Compound 10, (15S)-12,12,19-trimethyl-8-(3-{2-[1-(trifluoromethyl)cyclopropyl]ethoxy}-1H-pyrazol-1-yl)-2λ^6-thia-3,9,11,19,24-pentaazatetracyclo[18.3.1.05,10.011,15]tetracosa-1(24),5(10),6,8,20,22-hexaene-2,2,4-trione] | > 3000 | + (+ is <30%)
19 | CC1(C)C[C@@H]2CN1c1nc(-n3ccc(OCCC4(C(F)(F)F)CC4)n3)ccc1C(=O)NS(=O)(=O)c1ccn(n1)CCO2 (single isomer, unassigned) [Compound 167, 20,20-dimethyl-4-(3-{2-[1-(trifluoromethyl)cyclopropyl]ethoxy}-1H-pyrazol-1-yl)-17-oxa-10λ^6-thia-1,3,9,14,22-pentaazatetracyclo[16.2.1.111,14.02,7]docosa-2(7),3,5,11(22),12-pentaene-8,10,10-trione] | < 1000 | ++ (++ is 30-60%)
